Laboratory results: patent publication US20110053897A1 (IRM LLC, priority 2009, published 2011)
Like-named read-outs stand apart in the source and are kept apart here.

Target: T1, Syk kinase (Homo sapiens, UniProt P43405)
T1 construct: purchased
Assay: Syk kinase inhibition, Caliper LabChip off-chip mobility-shift kinase assay
Assay type: biochemical
Details: read-out: Syk Enzyme IC50
Method: Compounds of the examples and Table 1 provided herein were assayed to measure their capacity to inhibit Syk kinase.
Compounds of the examples and Table 1 provided herein were assessed for their ability to inhibit Syk kinase by utilizing Caliper Life Sciences' proprietary LabChip™ technology. The off-chip incubation mobility-shift kinase assay uses a microfluidic chip to measure the conversion of a fluorescent peptide substrate to a phosphorylated product. The reaction mixture, from a microtiter plate well, is introduced through a capillary sipper onto the chip, where the nonphosphorylated substrate and phosphorylated product are separated by electrophoresis and detected via laser induced fluorescence. […] The phosphorylated product migrates through the chip faster than the non-phosphorylated substrate, and signals from the two forms of the peptide appear as distinct peaks. Caliper's data analysis software (HTSWA) determines peak heights, from which the ratio of product to the peak sum P/(P+S) and percent (%) conversion is calculated. This value is used to compare compound wells to control wells present on the plate, and thereby determine the % inhibition values for the compound. The formula used to calculate % inhibition is as follows, where C100% is the average % conversion of the 100% activity wells and Co% is the average % conversion of the 0% activity wells: (1−(% conversionofsample−C0%)/(C100%−C0%))*100.
Compounds (10 mM stocks in 100% DMSO) are diluted to a final concentration of 5 μM for single point inhibition experiments, and a series dilution of 10, 3, 1, 0.3, 0.1, 0.03, 0.01, 0.003, 0.001, 0.0003, 0.0001, and 0.00003 μM were made for IC50 determination. Generally, 12 μL of enzyme buffer containing purified kinase (various amount; various suppliers), 100 mM HEPES, pH 7.5, 1 mM DTT (Calbiochem, 2333153), 10 mM MgCl2 (Sigma, M-1028) or 10 mM MnCl2 (Sigma, M-1787) (assay specific), and 0.002% Brij-35 (Sigma, B4184) are added to each well. Compound and enzyme are allowed to pre-incubate for 15 minutes. 12 μL of peptide/ATP buffer containing 100 mM HEPES, pH 7.5, 1.5 μM fluorescein-labeled peptide (specific to kinase of interest), ATP (at KM apparent, Sigma, A9187), and 0.002% Brij-35 is then added to each well to initiate the reaction. The final concentration of DMSO in the well is 4%. Generally, reactions are incubated for 1 to 1.5 hours at room temperature to obtain adequate conversion of peptide to phosphorylated product in the linear range of the reaction. Reactions are terminated with the addition of 45 μL of Stop Buffer (containing 20 mM EDTA). Plates are then read on the LabChip 3000 using a 12-sipper LabChip. % conversion values and % inhibition values are obtained as provided and IC50 curves of compounds are generated using GraphPad Prism Version 4 or 5.01, or XLfit Version 4.3.2. When using GraphPad Prism, a nonlinear curve fit using the sigmoidal dose response—variable slope fit was used to graph IC50 curves and determine IC50 values and hillslopes. When using XLfit, Fit Model 205 (4-Parameter Logistic Model) is used to generate and fit the IC50 curve.

SMILES	IC50 [nM]	IC50 (Caliper LabChip assay) [nM]
CCn1ccc2cc(Nc3cc(C)ccn3)nc(NCC(O)C(F)(F)F)c2c1=O (stereo not shown) [compound 778]	–	413
CC(C)(C)Nc1nc(Nc2cc(C3(C(N)=O)CC3)ccn2)cc2ccn(CCO)c(=O)c12 [compound 859]	–	170
CC(C)(C)Nc1nc(Nc2cnccn2)cc2ccn(CC(=O)N3CCOCC3)c(=O)c12 [compound 1008]	–	238
C[C@@H](CO)Nc1nc(Nc2cnccn2)cc2ccn(CCF)c(=O)c12 [compound 1000]	–	74
CC1(O)CN(c2cc(Nc3cc4ccn(CCO)c(=O)c4c(NC(C)(C)C)n3)ncn2)C1 [compound 630, 8-(tert-butylamino)-6-(6-(3-hydroxy-3-methylazetidin-1-yl)pyrimidin-4-ylamino)-2-(2-hydroxyethyl)-2,7-naphthyridin-1(2H)-one]	–	204
CC(C)(C)Nc1nc(Nc2cc(CO)ccn2)cc2ccn(CCO)c(=O)c12 [compound 693]	–	42
[2H][C@]1(O)CC[C@H](Nc2nc(Nc3cnccn3)cc3ccn(CC)c(=O)c23)CC1 [compound 991]	–	29
CCn1ccc2cc(Nc3nccc(O)n3)nc(N[C@H]3CCC[C@H]3O)c2c1=O [compound 957]	–	15
COCCn1ccc2cc(-c3cnc(N)nc3)nc(NC(C)(C)C)c2c1=O [compound 910]	–	30
CC(C)(C)Nc1nc(Nc2cc(N3CCC(O)CC3)ncn2)cc2ccn(CCO)c(=O)c12 [compound 634]	–	161
[2H]C(C)(O)c1cc(Nc2cc3ccn(CCO)c(=O)c3c(NC(C)(C)C)n2)ncc1F (stereo not shown) [compound 876]	–	15
CC(C)n1ccc2cc(Nc3c[n+]([O-])ccn3)nc(N[C@H]3CC[C@@H](O)C3)c2c1=O [compound 1017]	–	25
CC(C)(C)Nc1nc(Nc2cc(OC3CCNCC3)ncn2)cc2ccn(CCO)c(=O)c12 [compound 645, 8-(tert-butylamino)-2-(2-hydroxyethyl)-6-(6-(piperidin-4-yloxy)pyrimidin-4-ylamino)-2,7-naphthyridin-1(2H)-one]	–	5
CC(C)(C)Nc1nc(Nc2cc(CN3CC(O)C3)c(F)cn2)cc2ccn(CCO)c(=O)c12 [compound 611]	–	251
CCn1ccc2cc(Nc3cnccn3)nc(N[C@H]3CC[C@@H](CO)C3)c2c1=O [compound 793]	–	18
[2H][C@]1(O)CC[C@H](Nc2nc(Nc3cc(C)ccn3)cc3ccn(CC)c(=O)c23)CC1 [compound 990]	–	20
Cn1ccc2cc(Nc3cnccn3)nc(NC3CCC3)c2c1=O [compound 460]	16	–
[2H]C([2H])([2H])n1ccc2cc(Nc3cnccn3)nc(NC[C@@H]3CCCO3)c2c1=O [compound 1048]	–	164
CC(C)(C)Nc1nc(Nc2cnccn2)cc2ccn(C[C@H](O)CO)c(=O)c12 [compound 669]	–	6
O=c1c2c(N[C@H]3CC[C@@H](O)CC3)nc(Nc3cnccn3)cc2ccn1CCN1CCOCC1 [compound 994]	–	108
[2H]C([2H])([2H])n1ccc2cc(Nc3cc(Cl)ccn3)nc(N[C@@H](C)CO)c2c1=O [compound 1051]	–	60.4
CC(C)(C)Nc1nc(Nc2cc(C3CCNCC3)ncn2)cc2ccn(CCO)c(=O)c12 [compound 638]	–	96
Cc1ccnc(Nc2cc3ccn(C)c(=O)c3c(N[C@H]3CCOC3)n2)c1 [compound 325]	57	–
[2H]C([2H])([2H])n1ccc2cc(Nc3cc(C)ccn3)nc(N[C@H]3CC[C@@H](CO)C3)c2c1=O [compound 985]	–	41
CC(C)(C)Nc1nc(Nc2cc(C3(C(=O)O)CC3)ccn2)cc2ccn(CCO)c(=O)c12 [compound 856]	–	393
CCn1ccc2cc(Nc3cnccn3)nc(N[C@H]3CCC[C@@H]3O)c2c1=O [compound 423]	52.4	–
CC(C)(C)Nc1nc(Nc2cc(-c3ccn[nH]3)ccn2)cc2ccn(CCO)c(=O)c12 [compound 690, 6-(4-(1H-pyrazol-5-yl)pyridin-2-ylamino)-8-(tert-butylamino)-2-(2-hydroxyethyl)-2,7-naphthyridin-1(2H)-one]	–	67

Results, then the molecule that gave them:

IC50 [nM]	IC50 (Caliper LabChip assay) [nM]	SMILES
109	–	O=c1[nH]ccc2cc(-c3cncnc3)nc(Nc3ccc(C4CNC4)cc3)c12 [compound 129]
67	–	Cc1ncc(-c2cc3cc[nH]c(=O)c3c(Nc3ccc(C4CCC(N(C)C)CC4)cc3)n2)cn1 (stereo not shown) [compound 106]
324	–	CCn1ccc2cc(Nc3cc(C)ccn3)nc(N[C@H]3CCCC[C@H]3O)c2c1=O (racemic) [compound 408]
32	–	Cc1ccnc(Nc2cc3cc[nH]c(=O)c3c(Nc3ccc(C4CCN(C5CC5)CC4)c(C)c3)n2)c1 [compound 252]
70.8	–	CCn1ccc2cc(Nc3cc(C)ccn3)nc(N[C@@H]3CC[C@H](O)C3)c2c1=O [compound 426]
58	–	CCN1CCN(CCc2ccc(Nc3nc(-c4cnn(C)c4)cc4cc[nH]c(=O)c34)cc2)CC1 [compound 441]
226	–	CCN1CCN(CCc2ccc(Nc3nc(Nc4cc(C(=O)O)ccn4)cc4cc[nH]c(=O)c34)cc2)CC1 [compound 586]
30	–	CC(C)Nc1nc(Nc2cnccn2)cc2cc[nH]c(=O)c12 [compound 462]
1540	–	Cc1ccnc(Nc2cc3cc[nH]c(=O)c3c(NC3CNC3)n2)c1 [compound 300]
–	1130	CCn1ccc2cc(Nc3cnccn3)nc(Nc3ccc(C(=O)N4CCC(O)CC4)cc3)c2c1=O [compound 832]
346	–	CCC(C(=O)OC)N1CCC(c2ccc(Nc3nc(-c4cncc(OC)n4)cc4cc[nH]c(=O)c34)cc2C)CC1 (stereo not shown) [compound 118]
476	–	CCn1ccc2cc(Nc3cc(C)ccn3)nc(N[C@H]3CCCC[C@@H]3O)c2c1=O (racemic) [compound 406]
–	14	Nc1ncc(-c2cc3ccn(CCO)c(=O)c3c(N[C@H]3CC[C@@H](O)CC3)n2)cn1 [compound 1028]
434	–	Cc1cc(Nc2nc(Nc3cc(C(F)(F)F)ccn3)cc3cc[nH]c(=O)c23)ccc1C1CCN(C2CC2)CC1 [compound 255]
–	3	O=c1[nH]ccc2cc(Nc3cnccn3)nc(NC3CCC3)c12 [compound 767]
–	24	NC(=O)Cn1ccc2cc(-c3cnc(N)nc3)nc(NC3CCOCC3)c2c1=O [compound 750]

IC50 [nM]	IC50 (Caliper LabChip assay) [nM]	SMILES
49	–	Cc1ncc(-c2cc3cc[nH]c(=O)c3c(Nc3ccc([C@H]4CC[C@H](N5CCOCC5)CC4)cc3)n2)cn1 [compound 1]
–	660	COCCNC(=O)c1ccc(Nc2nc(Nc3cc(C)ccn3)cc3ccn(C)c(=O)c23)cc1 [compound 652]
224	–	CCn1ccc2cc(Nc3cc(C)ccn3)nc(NC[C@@H]3CC[C@@H](O)C3)c2c1=O [compound 412]
489	–	Cc1ccc(Nc2cc3cc[nH]c(=O)c3c(Nc3ccc(C4CCN(CC(N)=O)CC4)c(C)c3)n2)nc1 [compound 558]
998	–	Cc1ccnc(Nc2cc3cc[nH]c(=O)c3c(N3CC[C@@H](CO)C3)n2)c1 [compound 399]
86	–	CN1CCCN(CCc2ccc(Nc3nc(-c4cncnc4)cc4cc[nH]c(=O)c34)cc2)CC1 [compound 435]
48	–	CCN1CCN(Cc2n[nH]c3cc(Nc4nc(-c5cnc(OC)nc5)cc5cc[nH]c(=O)c45)ccc23)CC1 [compound 204]
393	–	Cc1ccnc(Nc2cc3ccn(C)c(=O)c3c(Nc3ccc(C4CCOCC4)nc3)n2)c1 [compound 372]
63.4	–	Cc1ccnc(Nc2cc3ccn(CCO)c(=O)c3c(Nc3ccc(S(C)(=O)=O)cc3)n2)c1 [compound 404]
57	–	COc1ncc(-c2cc3cc[nH]c(=O)c3c(Nc3ccc(C4CNC4)cc3)n2)cn1 [compound 130]
7	–	COc1cncc(-c2cc3cc[nH]c(=O)c3c(Nc3ccc(C4CCN(CC(O)CO)CC4)cc3)n2)n1 (stereo not shown) [compound 127]
335	–	O=c1[nH]ccc2cc(Nc3ccccn3)nc(NC3CCOCC3)c12 [compound 297]
1120	–	CC(=O)N1CCN(CCc2ccc(Nc3nc(Nc4ccc(C)cn4)cc4cc[nH]c(=O)c34)cc2)CC1 [compound 541]
332	–	CCOC(=O)/C=C/c1cc2cc[nH]c(=O)c2c(Nc2ccc(N3CCOCC3)cc2)n1 [compound 242]
115	–	COc1cncc(-c2cc3cc[nH]c(=O)c3c(Nc3ccc(C4CCN(CCS(C)(=O)=O)CC4)c(C)c3)n2)n1 [compound 132]
